From US10323026B2, “Heterocyclic compound” (Takeda Pharmaceutical Company Limited, priority 2016, dated 2019)

The molecules below were run against T1, His-hMAGL (recombinant polyhistidine tagged human MAGL protein) (Homo sapiens, UniProt Q99685) (assay: Measurement of MAGL inhibitory activity (RapidFire-mass spectrometry of arachidonic acid produced from 2-arachidonylglycerol)). Settings: test compound 10 μM; His-hMAGL; substrate 2-arachidonylglycerol; 60 min preincubation; 10 µM.
T1 construct: polyhistidine (His) (N); made in house; host or cells: E. coli BL21(DE3)
T1 sequence (Q99685 1-303): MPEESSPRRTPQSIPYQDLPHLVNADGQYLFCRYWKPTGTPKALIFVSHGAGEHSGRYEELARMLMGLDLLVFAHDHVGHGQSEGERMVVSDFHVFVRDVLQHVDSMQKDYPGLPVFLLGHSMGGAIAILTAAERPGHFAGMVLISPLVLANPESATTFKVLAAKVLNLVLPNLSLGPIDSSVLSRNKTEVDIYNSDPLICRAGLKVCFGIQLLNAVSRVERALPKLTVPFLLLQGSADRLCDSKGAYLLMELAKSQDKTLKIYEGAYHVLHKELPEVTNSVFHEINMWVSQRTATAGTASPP
Assay type: biochemical
Description: Furthermore, acetonitrile (50 μL) containing 3 μM arachidonic acid-d8 (Cayman Chemical Company) was added and the mixture was stirred.
The amount of arachidonic acid in the obtained enzyme reaction mixture was calculated by measuring by RapidFire-mass spectrometry and correcting by the amount of arachidonic acid-d8. High Throughput online solid phase extraction was performed using RapidFire 300™ system (Agilent Technologies, Inc.). Samples were loaded on SPE C4 cartridge (Agilent Technologies, Inc.) and desalted with 0.2 (v/v) % acetic acid (Wako Pure Chemical Industries, Ltd.) in ultrapure water/acetonitrile (70/30, v/v) at a flow rate of 1.5 mL/min, eluted at a flow rate of 0.5 mL/min with 0.2(v/v) % acetic acid dissolved in acetonitrile/ultrapure water (90/10, v/v), and injected into the mass spectrometry part. The injection needle was washed with ultrapure water (500 millisecond) and acetonitrile (500 millisecond) to minimize carry-over. […] The RapidFire300 system was controlled by RapidFire UI software version 3.6 (Agilent Technologies, Inc.).
The mass spectrometry of the resultant product was performed using API4000™ triple quadrupole mass spectrometer (AB SCIEX) equipped with an electrospray ion source (TurboIon Spray™) in a negative selected reaction monitoring (SRM) mode. The conditions of SRM are shown below. The parameters of the instrument were optimized as follows: capillary temperature 600° C., ion spray voltage −4.5 kV, collision gas 8, curtain gas 15 psi, ion source gas 1 60 psi, ion source gas 2 60 psi. The mass spectrometer was controlled by Analyst™ software version 1.5.1 (AB SCIEX). The peak area integration was analyzed using RapidFire integrator software version 3.6 (Agilent Technologies, Inc.).
MAGL inhibitory rate (%) was calculated according to the following calculation formula. (1-(arachidonic acid production amount of test compound addition group−arachidonic acid production amount of enzyme-free group)÷(arachidonic acid production amount of test compound-free group−arachidonic acid production amount of enzyme-free group))×100

Structure (SMILES) | % inhibition (10 μM)
CC(Oc1ccc(Cl)cc1F)C1CCN(C(=O)[C@H]2C[C@]3(COC(=O)N3)C2)CC1 (stereo partly drawn) [Example 32, (2s,4s)-2-((4-(1-(4-chloro-2-fluorophenoxy)ethyl)piperidin-1-yl)carbonyl)-7-oxa-5-azaspiro[3.4]octan-6-one] | 100%
CC(Oc1c(F)ccc(F)c1F)C1CCN(C(=O)[C@H]2C[C@]3(COC(=O)N3)C2)CC1 (stereo partly drawn) [Example 57, (2s,4s)-2-((4-(1-(2,3,6-trifluorophenoxy)ethyl)piperidin-1-yl)carbonyl)-7-oxa-5-azaspiro[3.4]octan-6-one] | 100%

Same assay, conditions: test compound 10 μM; His-hMAGL; substrate 2-arachidonylglycerol; 60 min preincubation; read-out: % inhibition (10 μM)

Structure (SMILES) | inhibition at 10 µM
O=C1N[C@]2(CO1)C[C@H](C(=O)N1CC(COc3cc(Br)c(C(F)(F)F)cc3F)C1)C2 [Example 41, (2s,4s)-2-((3-((5-bromo-2-fluoro-4-(trifluoromethyl)phenoxy)methyl)azetidin-1-yl)carbonyl)-7-oxa-5-azaspiro[3.4]octan-6-one] | 101%
O=C1N[C@]2(CO1)C[C@H](C(=O)N1CCC(COc3ccc(F)cc3Cl)(C(F)(F)F)CC1)C2 [Example 48, (2s,4s)-2-((4-((2-chloro-4-fluorophenoxy)methyl)-4-(trifluoromethyl)piperidin-1-yl)carbonyl)-7-oxa-5-azaspiro[3.4]octan-6-one] | 100%
O=C1N[C@]2(CO1)C[C@H](C(=O)N1CC(COc3ccc(C(F)(F)F)cc3Cl)C1)C2 [Example 76, (2s,4s)-2-((3-((2-chloro-4-(trifluoromethyl)phenoxy)methyl)azetidin-1-yl)carbonyl)-7-oxa-5-azaspiro[3.4]octan-6-one] | 100%
CC1(C(F)(F)c2ccc(F)cc2Cl)CCN(C(=O)[C@H]2C[C@]3(COC(=O)N3)C2)CC1 [Example 52, (2s,4s)-2-((4-((2-chloro-4-fluorophenyl)(difluoro)methyl)-4-methylpiperidin-1-yl)carbonyl)-7-oxa-5-azaspiro[3.4]octan-6-one] | 100%
Cc1ccc(C(F)(F)CC2CN(C(=O)[C@H]3C[C@]4(COC(=O)N4)C3)C2)cc1Cl [Example 109, (2s,4s)-2-((3-(2-(3-chloro-4-methylphenyl)-2,2-difluoroethyl)azetidin-1-yl)carbonyl)-7-oxa-5-azaspiro[3.4]octan-6-one] | 99%
O=C1N[C@]2(CO1)C[C@H](C(=O)N1CCC(C3(C(F)(F)F)Cc4cc(F)ccc4O3)CC1)C2 (stereo partly drawn) [Example 58, (2s,4s)-2-((4-(5-fluoro-2-(trifluoromethyl)-2,3-dihydro-1-benzofuran-2-yl)piperidin-1-yl)carbonyl)-7-oxa-5-azaspiro[3.4]octan-6-one] | 100%
Cc1cc(Cl)ccc1COC1CN(C(=O)[C@H]2C[C@]3(COC(=O)N3)C2)C1 [Example 92, (2s,4s)-2-((3-((4-chloro-2-methylbenzyl)oxy)azetidin-1-yl)carbonyl)-7-oxa-5-azaspiro[3.4]octan-6-one] | 100%
O=C1N[C@]2(CO1)C[C@H](C(=O)N1CC(/C=C(\F)c3ccc(C(F)(F)F)c(F)c3F)C1)C2 [Example 104, (2s,4s)-2-((3-((Z)-2-(2,3-difluoro-4-(trifluoromethyl)phenyl)-2-fluorovinyl)azetidin-1-yl)carbonyl)-7-oxa-5-azaspiro[3.4]octan-6-one] | 100%
O=C1N[C@]2(CO1)C[C@H](C(=O)N1CCC(C(F)(F)c3ccc(F)cc3Cl)CC1)C2 [Example 112, (2s,4s)-2-((4-((2-chloro-4-fluorophenyl)(difluoro)methyl)piperidin-1-yl)carbonyl)-7-oxa-5-azaspiro[3.4]actan-6-one] | 100%
O=C1N[C@]2(CO1)C[C@H](C(=O)N1CC(CC(F)(F)c3ccc(C(F)(F)F)c(Cl)c3)C1)C2 [Example 110, (2s,4s)-2-((3-(2-(3-chloro-4-(trifluoromethyl)phenyl)-2,2-difluoroethyl)azetidin-1-yl)carbonyl)-7-oxa-5-azaspiro[3.4]octan-6-one] | 100%
